The nature of this series: Stability of amino-functionalized denatonium derivatives (LC/MS measurements). The series is classed as physicochemical. The source says: The decomposition of the substance is illustrated as follows: […]

As to `CC[N+](CC)(CC(=O)Nc1c(C)cccc1C)Cc1ccc(N)cc1` [derivative (1)], the stability entry is given as “not stable”.

These data come from patent publication US11891352B2, “Aminomethyl-functionalized denatonium derivatives, their preparation and use” (Julius-Maximilians-Universitaet Wuerzburg, priority 2018, dated 2024).
